Test results: EPA's ToxValDB 9.5 (doi:10.2903/j.efsa.2010.1822)

How the values were obtained:
Daphnia magna = settings: chronic/long-term; duration: 21 days; reproduction
Lepomis macrochirus = settings: acute; duration: 96 hours; mortality
Coturnix japonica = settings: reproduction developmental
Oncorhynchus mykiss = settings: chronic/long-term; duration: 28 days; other
Canidae = settings: chronic; duration: 52 weeks; oral; Dog Other; histopathology: nonneoplastic
Hypoaspis aculeifer = settings: chronic/long-term
Anas platyrhynchos = settings: short-term; oral; feed; mortality
Bibionidae = settings: chronic/long-term; duration: 28 days
Apis mellifera = settings: acute; duration: 48 hours; dermal; mortality
Colinus virginianus = settings: acute; oral; mortality
Aphidius rhopalosiphi = assay: LR50; higher = less toxic; settings: not reported; mortality

Q: How did the LC50 (Tagia sp.; acute, duration: 14 days, mortality) turn out when COC(=O)[N-]S(=O)(=O)c1ccc(N)cc1.[Na+] [Asulam-sodium] was run?
A: Its LC50 is 1000 mg/kg.

Q: And the NOEC (Tagia sp.; chronic/long-term, duration: 56 days)?
A: The NOEC was 181 mg/kg.

Q: What about the NOEC (Daphnia magna) of the same molecule?
A: The NOEC was 6.4 mg/L.

Q: And the LC50 (Lepomis macrochirus)?
A: The LC50 was greater than 91.3 µg/mL.

Q: What about the NOAEC (Coturnix japonica) of the same molecule?
A: Its NOAEC is 65 mg/kg-day.

Q: What about the NOEL (Coturnix japonica) of the same molecule?
A: The NOEL was 19 mg/kg-day.

Q: And the LD50 (Rattus norvegicus; acute, oral, mortality)?
A: Its LD50 is greater than 4560 mg/kg.

Q: And the NOAEL (Rattus norvegicus; chronic, duration: 2 years, hematological)?
A: The NOAEL was 36 mg/kg-day.

Q: What about the NOEL (Rattus norvegicus; reproduction developmental, reproduction) of the same molecule?
A: Its NOEL is 46 mg/kg-day.

Q: And the NOEC (Oncorhynchus mykiss)?
A: The NOEC was 119 mg/L.

Q: What about the NOAEL (Canidae) of the same molecule?
A: Its NOAEL is 100 mg/kg-day.

Q: And the NOEC (Hypoaspis aculeifer)?
A: Its NOEC is 4370 mg/kg.

Q: And the LD50 (Anas platyrhynchos)?
A: Its LD50 is greater than 22700 mg/kg-day.

Q: What about the NOEC (Bibionidae) of the same molecule?
A: Its NOEC is 91.3 mg/L.

Q: What about the LD50 (Apis mellifera) of the same molecule?
A: The LD50 was greater than 100 µg/piece.

Q: What about the LD50 (Colinus virginianus) of the same molecule?
A: The LD50 was greater than 1830 mg/kg.

Q: And the LR50 (Aphidius rhopalosiphi)?
A: The LR50 was 3090 mL/ha.
